From article PMC6934184, “Selective DNA-PKcs inhibition extends the therapeutic index of localized radiotherapy and chemotherapy” (The Journal of Clinical Investigation, 2019)

Biological target: T1, LRRK2 R1441C (Homo sapiens, UniProt Q5S007, R1441C)
T1 construct: purchased Thermo Fisher Scientific (Life Technologies) SelectScreen
Assay: SelectScreen Adapta
Assay type: biochemical
Experimental: The in vitro kinase selectivity of NU5455 was determined using the SelectScreen Broad Assay Panel (Thermo Fisher Scientific) involving activity and binding assays (Supplemental Table 1). […] Class IA PI3Ks were measured using the p85α subunit.
Kinase [ATP] % Assay Kinase [ATP] % Assay Kinase [ATP] % Assay Kinase [ATP] % Assay […]
SGK (SGK1) Km app 8.5 Z MAP4K2 (GCK) Km app 2.7 Z TLK2 n/a -0.3 L STK38 (NDR) n/a -5.9 L
MERTK (cMER) Km app 8.3 Z CDK2/cyclin A Km app 2.7 Z TGFBR1 (ALK5) n/a -0.4 L MATK (HYL) Km app -6.3 Z
FYN Km app 8.3 Z EPHA1 Km app 2.7 Z CLK3 Km app -0.5 Z ABL1 E255K Km app -6.6 Z
TEC n/a 8.1 L CDK2/cyclin E1 n/a 2.7 L MAP3K14 (NIK) n/a -0.5 L STK17A (DRAK1) n/a -6.6 L
KIT V654A n/a 8.1 L TESK2 n/a 2.7 L AKT3 (PKB gamma) Km app -0.5 Z JAK2 JH1 JH2 Km app -6.7 Z
ROS1 Km app 8.0 Z SPHK1 Km app 2.7 A MAP3K9 (MLK1) Km app -0.5 Z PRKACB (PRKAC beta) n/a -6.8 L
FGFR3 K650E Km app 7.9 Z AMPK A2/B1/G1 Km app 2.6 Z IKBKB (IKK beta) Km app -0.6 Z PDGFRA (PDGFR alpha) Km app -6.8 Z
RAF1 (cRAF) Y340D Y341D 100 7.9 Z DYRK3 Km app 2.6 Z CAMK2A (CaMKII alpha) Km app -0.6 Z NEK9 Km app -7.2 Z
PI4KA (PI4K alpha) 10 7.8 A CSNK1D (CK1 delta) Km app 2.6 Z PRKCB1 (PKC beta I) Km app -0.7 Z PDK1 Km app -7.3 Z
HIPK2 Km app 7.8 Z ACVR2A n/a 2.5 L TTK n/a -0.7 L RPS6KB1 (p70S6K) Km app -7.8 Z
CSK Km app 7.6 Z DDR2 T654M n/a 2.5 L ZAK n/a -0.7 L STK38L (NDR2) n/a -8.4 L
PRKCG (PKC gamma) Km app 7.6 Z JAK2 Km app 2.5 Z IKBKE (IKK epsilon) Km app -0.7 Z ABL1 G250E Km app -8.5 Z
SRMS (Srm) Km app 7.5 Z HIPK3 (YAK1) Km app 2.5 Z CAMK2G (CaMKII gamma) n/a -0.8 L PRKD1 (PKC mu) Km app -8.5 Z
YES1 Km app 7.4 Z AMPK (A1/B1/G2) n/a 2.4 L TLK1 n/a -0.8 L CDK5/p35 Km app -8.6 Z
RPS6KA5 (MSK1) Km app 7.4 Z MYO3B (MYO3 beta) n/a 2.3 L MAPK12 (p38 gamma) Km app -0.8 Z PDGFRA T674I Km app -8.9 Z
TNIK n/a 7.3 L PASK Km app 2.3 Z PRKCI (PKC iota) Km app -0.8 Z BLK Km app -8.9 Z
FER Km app 7.1 Z ACVRL1 (ALK1) n/a 2.3 L PKN2 (PRK2) n/a -1.0 L PRKD2 (PKD2) Km app -9.1 Z
CDK16 (PCTK1)/cyclin Y n/a 7.0 L EGFR (ErbB1) L861Q Km app 2.2 Z PIM1 Km app -1.0 Z CSNK1G2 (CK1 gamma 2) Km app -9.3 Z
MST4 Km app 6.9 Z RPS6KA3 (RSK2) Km app 2.1 Z CDK5/p25 Km app -1.1 Z ROCK1 Km app -9.5 Z
FLT1 (VEGFR1) Km app 6.5 Z STK23 (MSSK1) Km app 2.0 Z SRPK1 Km app -1.1 Z PRKCB2 (PKC beta II) Km app -9.6 Z
DYRK1A Km app 6.4 Z ALK R1275Q n/a 2.0 L BRSK1 (SAD1) Km app -1.1 Z CSNK1G1 (CK1 gamma 1) Km app -9.9 Z
PRKCD (PKC delta) Km app 6.2 Z TBK1 Km app 2.0 Z MAP3K3 (MEKK3) n/a -1.1 L ABL2 (Arg) Km app -10.3 Z
EGFR (ErbB1) Km app 6.0 Z ACVR1B (ALK4) Km app 2.0 Z AMPK A1/B1/G1 Km app -1.2 Z STK3 (MST2) Km app -10.3 Z
CDC7/DBF4 n/a 6.0 L CDK3/cyclin E1 n/a 1.9 L WNK3 n/a -1.2 L CAMK4 (CaMKIV) Km app -10.4 Z
JAK3 Km app 6.0 Z KDR (VEGFR2) Km app 1.8 Z LATS1 n/a -1.3 L MKNK1 (MNK1) Km app -10.7 Z
MAPK13 (p38 delta) Km app 5.8 Z ULK1 n/a 1.8 L DMPK n/a -1.5 L FLT3 ITD n/a -11.6 L
FRAP1 (mTOR) Km app 5.7 Z AURKB (Aurora B) Km app 1.7 Z CDK2/cyclin A1 n/a -1.6 L CHEK2 (CHK2) Km app -11.7 Z
KIT Y823D n/a 5.6 L LRRK2 Km app 1.7 A LIMK1 n/a -1.7 L LTK (TYK1) Km app -13.1 Z
ITK Km app 5.5 Z MAP2K3 (MEK3) n/a 1.6 L DYRK1B Km app -1.8 Z JAK2 JH1 JH2 V617F Km app -13.8 Z
KIT Km app 5.3 Z DAPK1 Km app 1.6 A DDR1 n/a -1.8 L EPHA8 Km app -13.8 Z
CDK7/cyclin H/MNAT1 Km app 5.3 A EPHA6 n/a 1.6 L BTK Km app -2.0 Z EGFR (ErbB1) T790M L858R Km app -14.1 Z
RET Km app 5.2 Z MAP4K1 (HPK1) n/a 1.6 L ADRBK1 (GRK2) Km app -2.0 Z MET M1250T Km app -14.5 Z […]

T1 sequence (Q5S007 whole entry R1441C): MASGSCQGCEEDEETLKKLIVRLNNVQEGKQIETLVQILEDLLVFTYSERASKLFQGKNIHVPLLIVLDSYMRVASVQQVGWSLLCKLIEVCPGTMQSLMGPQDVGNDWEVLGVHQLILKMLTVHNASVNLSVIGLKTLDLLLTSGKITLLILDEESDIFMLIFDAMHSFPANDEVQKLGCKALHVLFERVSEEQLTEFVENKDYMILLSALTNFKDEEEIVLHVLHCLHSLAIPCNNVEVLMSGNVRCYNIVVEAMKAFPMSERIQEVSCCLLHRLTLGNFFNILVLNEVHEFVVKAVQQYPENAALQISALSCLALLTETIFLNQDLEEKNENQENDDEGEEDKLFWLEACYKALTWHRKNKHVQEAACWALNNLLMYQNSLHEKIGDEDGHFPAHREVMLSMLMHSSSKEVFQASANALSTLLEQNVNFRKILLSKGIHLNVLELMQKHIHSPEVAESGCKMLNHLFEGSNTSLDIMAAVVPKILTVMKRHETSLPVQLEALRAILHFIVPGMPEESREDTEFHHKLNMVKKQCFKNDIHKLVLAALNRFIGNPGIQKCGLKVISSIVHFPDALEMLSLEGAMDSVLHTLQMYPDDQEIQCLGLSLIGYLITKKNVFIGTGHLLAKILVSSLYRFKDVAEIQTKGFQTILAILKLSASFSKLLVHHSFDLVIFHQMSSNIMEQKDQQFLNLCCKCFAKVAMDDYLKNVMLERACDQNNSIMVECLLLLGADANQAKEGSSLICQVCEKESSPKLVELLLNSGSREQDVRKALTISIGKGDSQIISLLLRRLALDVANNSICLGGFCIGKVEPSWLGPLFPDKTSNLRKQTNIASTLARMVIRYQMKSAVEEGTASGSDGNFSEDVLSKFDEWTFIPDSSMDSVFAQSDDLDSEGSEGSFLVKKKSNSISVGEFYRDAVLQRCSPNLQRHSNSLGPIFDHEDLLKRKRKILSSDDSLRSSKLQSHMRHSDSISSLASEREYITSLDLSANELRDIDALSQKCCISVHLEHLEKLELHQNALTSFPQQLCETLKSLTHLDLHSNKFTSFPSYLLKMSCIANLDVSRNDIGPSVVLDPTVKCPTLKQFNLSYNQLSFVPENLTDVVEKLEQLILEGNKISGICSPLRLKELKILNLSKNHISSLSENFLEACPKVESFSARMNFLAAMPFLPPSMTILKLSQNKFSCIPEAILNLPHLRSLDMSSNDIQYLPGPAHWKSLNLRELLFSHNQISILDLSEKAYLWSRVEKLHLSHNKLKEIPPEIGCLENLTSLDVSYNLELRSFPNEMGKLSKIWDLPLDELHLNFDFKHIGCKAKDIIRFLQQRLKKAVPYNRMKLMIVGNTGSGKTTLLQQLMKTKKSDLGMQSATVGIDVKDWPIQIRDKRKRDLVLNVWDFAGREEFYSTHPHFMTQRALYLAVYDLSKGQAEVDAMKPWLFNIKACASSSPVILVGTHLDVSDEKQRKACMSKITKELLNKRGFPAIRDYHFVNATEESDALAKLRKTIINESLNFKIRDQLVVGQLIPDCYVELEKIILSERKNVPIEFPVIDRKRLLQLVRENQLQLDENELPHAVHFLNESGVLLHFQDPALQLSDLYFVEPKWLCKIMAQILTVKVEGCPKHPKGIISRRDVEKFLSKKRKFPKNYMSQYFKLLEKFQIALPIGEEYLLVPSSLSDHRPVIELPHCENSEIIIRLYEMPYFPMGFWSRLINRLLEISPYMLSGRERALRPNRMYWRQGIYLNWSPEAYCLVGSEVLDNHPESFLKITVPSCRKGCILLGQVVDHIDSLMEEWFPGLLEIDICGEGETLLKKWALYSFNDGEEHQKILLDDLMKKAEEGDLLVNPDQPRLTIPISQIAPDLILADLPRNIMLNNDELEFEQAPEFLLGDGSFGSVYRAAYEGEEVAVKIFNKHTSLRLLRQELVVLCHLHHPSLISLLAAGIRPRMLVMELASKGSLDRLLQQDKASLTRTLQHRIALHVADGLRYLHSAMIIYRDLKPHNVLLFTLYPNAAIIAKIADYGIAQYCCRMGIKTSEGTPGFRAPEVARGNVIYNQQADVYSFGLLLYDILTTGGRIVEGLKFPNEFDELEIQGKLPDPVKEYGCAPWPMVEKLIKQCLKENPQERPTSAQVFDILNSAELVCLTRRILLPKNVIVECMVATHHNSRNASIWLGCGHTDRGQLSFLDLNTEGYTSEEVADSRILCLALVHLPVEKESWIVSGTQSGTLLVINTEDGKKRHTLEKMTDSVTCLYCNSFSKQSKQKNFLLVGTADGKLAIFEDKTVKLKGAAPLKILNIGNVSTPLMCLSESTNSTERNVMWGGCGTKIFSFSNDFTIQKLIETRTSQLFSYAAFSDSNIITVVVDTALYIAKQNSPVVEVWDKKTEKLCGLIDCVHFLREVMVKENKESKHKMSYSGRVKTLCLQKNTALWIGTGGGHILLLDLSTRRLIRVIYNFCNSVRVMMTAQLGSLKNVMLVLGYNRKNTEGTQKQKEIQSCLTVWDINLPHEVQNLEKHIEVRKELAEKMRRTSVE

SMILES: CN(C(=O)CN1CCOCC1)c1ccc2sc3c(-c4cccc5c(=O)cc(N6CC7CCC(C6)O7)oc45)cccc3c2c1 [NU5455]
- inhibition at 1 µM: 1.8%
